Measurements reported in patent publication US20230142274A1 (SIMCERE PHARMACEUTICAL CO., LTD., priority 2020, published 2023).
Where two headings read alike, the source gives them in different places.

Assay: Pharmacokinetic experiment in mouse
Type: in vivo
Settings: female CB17-SCID mice; for half-life: mouse, plasma, read-out: Drug Elimination Half-life (converted)
Excerpt: CB17-SCID mice were purchased from Beijing Vital River Laboratory Animal Technology Co., Ltd.
DMSO, HP-β-CD (hydroxypropyl-β-cyclodextrin), PEG400 (polyethylene glycol 400), and Vitamin E TPGS (D-α-tocopherol polyethylene glycol 1000 succinate) were purchased from Sigma.
Six female CB17-SCID mice (20 g to 30 g, aged 4 to 6 weeks) were divided randomly into two groups, with 3 mice in each group. In Group 1, the compound in a vehicle of an aqueous solution containing 5% dimethyl sulfoxide and 95% hydroxypropyl-β-cyclodextrin (10%, w/v) was administered by intravenous injection via tail vein. In Group 2, a corresponding dose of the compound in a vehicle of an aqueous solution containing 30% polyethylene glycol 400 and 70% D-α-tocopherol polyethylene glycol 1000 succinate (10%, w/v) was orally administered. The animals were fed normally with food and water before experiment. The mice in each group underwent intravenous blood collection before administration and at 0.083 h (intravenous injection group only), 0.25 h, 0.5 h, 1 h, 2 h, 4 h, 6 h, 8 h, and 24 h after administration. The collected whole blood samples were placed in K2EDTA anticoagulation tubes and centrifuged for 5 min (4000 rpm, 4° C.) to collect the plasma for testing.
10 μL of the mouse plasma sample was taken, and 150 μL of acetonitrile solvent (containing the internal standard compound) was added to precipitate protein. After the resultant was vortexed for 0.5 min and centrifuged (4700 rpm, 4° C.) for 15 min, the supernatant was subjected to 2-fold dilution with water containing 0.05% (v/v) FA and was then subjected to quantitative measurement in LC-MS/MS system (AB Sciex Triple Quad 6500+). A calibration standard curve was prepared in CB17-SCID mouse plasma along with quality control samples to determine the plasma concentration. As for a 10× diluted sample, 2 μL of sample was taken and 18 μL of blank plasma was added. After being vortexed for 0.5 min, the mixture was added with 300 μL of acetonitrile solvent (containing the internal standard compound) so as to precipitate protein. The rest of the processing steps were the same as those for the undiluted samples.

| SMILES | Drug Exposure (oral dose 25 mg/kg) [µg·h/mL] | Max. Drug Conc. (oral dose 25 mg/kg) [ng/mL] | Peak Time of Drug Conc. (oral dose 25 mg/kg) [h] | half-life (oral dose 25 mg/kg) [h] | other results |
| --- | --- | --- | --- | --- | --- |
| CC(C)OC(=O)Nc1ccc(-c2cnc([C@H]3CC[C@H](NC(=O)OC(C)C)CC3)s2)c(P(C)(C)=O)c1 [Example 1, isopropyl trans-N-[3-dimethylphosphoryl-4-[2-[4-(isopropoxycarbonylamino)cyclohexyl]thiazol-5-yl]phenyl]carbamate] |  |  |  |  | Drug Exposure (oral dose 80 mg/kg): 211.819 µg·h/mL; Max. Drug Conc. (oral dose 80 mg/kg): 14640 ng/mL; Peak Time of Drug Conc. (oral dose 80 mg/kg): 2.3 h; half-life (oral dose 80 mg/kg): 3.7 h |
| CC(C)OC(=O)Nc1ccc(-c2cnc(C3CCC(NC(=O)OC(C)C)CC3)s2)c(S(=N)(=O)C(C)C)c1 (stereo not drawn) [Example 3, isopropyl trans-N-[4-[2-[4-(isopropoxycarbonylamino)cyclohexyl]thiazol-5-yl]-3-(isopropylsulfonimidoyl)phenyl]carbamate] |  |  |  |  | Drug Exposure (oral dose 80 mg/kg): 271.377 µg·h/mL; Max. Drug Conc. (oral dose 80 mg/kg): 15438 ng/mL; Peak Time of Drug Conc. (oral dose 80 mg/kg): 2.8 h; half-life (oral dose 80 mg/kg): 32 h |
| Cc1cc(Nc2ccc(-c3cnc([C@H]4CC[C@H](NC(=O)OC(C)C)CC4)s3)c(S(=O)(=O)C3CC3)c2)n[nH]1 [Example 48, isopropyl trans-(4-(5-(2-(cyclopropylsulfonyl)-4-((5-methyl-1H-pyrazol-3-yl)amino)phenyl)thiazol-2-yl)cyclohexyl)carbamate] |  |  |  |  | Drug Exposure (oral dose 30 mg/kg): 203.497 µg·h/mL; Max. Drug Conc. (oral dose 30 mg/kg): 17657 ng/mL; Peak Time of Drug Conc. (oral dose 30 mg/kg): 2 h; half-life (oral dose 30 mg/kg): 7.6 h |
| Cc1cc(Nc2ccc(-c3cnc(C4CCC(NC(=O)OC(C)C)CC4)s3)c(S(=N)(=O)C3CC3)c2)n[nH]1 (stereo not drawn) [Example 50, isopropyl trans-N-[4-[5-[2-(cyclopropylsulfonimidoyl)-4-]((5-methyl-1H-pyrazol-3-yl)amino]phenyl]thiazol-2-yl]cyclohexyl]carbamate] | 18.187 | 4076 | 1 | 4.7 |  |
| CC(C)OC(=O)N[C@H]1CC[C@H](c2ncc(-c3ccc(Nc4cn(C)nn4)cc3S(=N)(=O)C3CC3)s2)CC1 (stereo partly drawn) [Example 54] | 47.683 | 6698 | 1 | 3.1 |  |
| CC(C)OC(=O)Nc1ccc(-c2cnc([C@H]3CC[C@H](NC(=O)OC(C)C)CC3)s2)c(S(=N)(=O)C2CC2)c1 (stereo partly drawn) [Example 68, isopropyl trans-N-[3-(cyclopropylsulfonimidoyl)-4-[2-[4-(isopropoxycarbonylamino)cyclohexyl]thiazol-5-yl]phenyl]carbamate] | 156.699 | 14798 | 1.3 | 5 |  |

Now from value to molecule, other results behind:

| Drug Exposure (oral dose 25 mg/kg) [µg·h/mL] | Max. Drug Conc. (oral dose 25 mg/kg) [ng/mL] | Peak Time of Drug Conc. (oral dose 25 mg/kg) [h] | half-life (oral dose 25 mg/kg) [h] | SMILES | other results |
| --- | --- | --- | --- | --- | --- |
| 125.779 | 19257 | 1.3 |  | COc1ccc(-c2ccc(-c3cnc([C@H]4CC[C@H](NC(=O)OC(C)C)CC4)s3)c([S@@](=N)(=O)C3CC3)c2)cn1 (stereo in doubt) [Example 94] | Drug Elimination Half-life (oral dose 25 mg/kg): 3.5 h |
| 223.309 | 13563 | 5 | 10 | CC(C)OC(=O)NC1CCC(c2ncc(-c3ccc(Nc4ccc(F)cn4)cc3S(=N)(=O)C3CC3)s2)CC1 (stereo not drawn) [Example 81, isopropyl trans-N-[4-[5-[2-(cyclopropylsulfonimidoyl)]-4-[(5-fluoro-2-pyridyl)amino]phenyl]thiazol-2-yl]cyclohexyl]carbamate] |  |
| 40.08 | 8038 | 1 | 3.6 | Cc1cc(Nc2ccc(-c3cnc([C@H]4CC[C@H](NC(=O)OC(C)C)CC4)s3)c(S(=O)(=O)C3COC3)c2)n[nH]1 [Example 92, isopropyl trans-N-[4-[5-[4-[(5-methyl-1H-pyrazol-3-yl)amino]-2-(oxetan-3-ylsulfonyl)phenyl]thiazol-2-yl]cyclohexyl]carbamate] |  |
